We go through three compounds from article PMC10590383, “Repurposing conformational changes in ANL superfamily enzymes to rapidly generate biosensors for organic and amino acids” (Nature Communications, 2023).

Data set [1] is described as follows: Substrate (ligand) specificity of […]s. Type of data set: biochemical. To be noted: for fluorescence response of GECFINDER to each substrate, AVE of 3 repeats: Supplementary Fig. 3 c, substrate specificity. The gist of the method: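 Purified biosensor protein (0.75 μM) with ligand, 1 mM ATP and 2.5 mM MgCl2 in 100 mM Tris-HCl, pH 7.5, at room temperature. Fluorescence (Ex 460 or 480/Em 510 nm) read each minute for 15 min. Dose-response fitted by 5-parameter logistic; specificity tested with 20 amino acids at 100 μM as normalized ΔF/F0.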

The nature of data set [2]: Fluorescence spectra / excitation wavelength scan of […]s. Type of data set: physicochemical. The following applies: Wavelength 300 nm.

Each structure is given as a SMILES string.

For the compound `N[C@@H](Cc1ccccc1)C(=O)O` [Phe], the “AVE of Repeat 1-3, sensor signal with ligand (Supplementary Fig. 7 c)” value in data set [1] (0.5 mM ligand, Control AVE 12117.3) is recorded as 23386.3. Further, the “fluorescence response of GECFINDER to each substrate, AVE of 3 repeats” value (“fluorescence response of GECFINDER” for short) in data set [1] was 0.3443. Besides, the entries for the “Wavelength scan, AVE of Repeat 1-3 (Fig. 3 d)” value in data set [2] (0.001 μM Phe) and in data set [2] (1 μM Phe) were 174.667 and 212, respectively.
Regarding `CC[C@H](C)[C@H](N)C(=O)O` [Ile], in data set [1], the “fluorescence response of GECFINDER” value is given as 0.009799. Moreover, the figures for the “Wavelength scan, AVE of Repeat 1-3 (Fig. 3 j)” value in data set [2] (0.05 μM Ile), in data set [2] (100 μM Ile) and in data set [2] (10000 μM Ile) were 3399.67, 3371.67 and 3289.33, respectively.
On to `N[C@@H](Cc1cnc[nH]1)C(=O)O` [His], for which, in data set [1], the “fluorescence response of GECFINDER” value is 0.0452. Besides, the “Wavelength scan, AVE of Repeat 1-3 (Fig. 3 l)” value amounted to 201.667 in data set [2] (0.005 μM His), 165.667 in data set [2] (10 μM His) and 210 in data set [2] (1000 μM His).
